Measured values from PubChem BioAssay AID720512 (Broad Institute, 2013).
The source made the active and inactive calls. How the calls were made is not given here.

Target: Toxin B (TcdB) glycohydrolase, Clostridioides difficile 630
Assay: TcdB glycohydrolase inhibitors, dose response, biochemical, cherry-pick, plate reader (AID 720512)
Conditions: recombinant TcdB glycohydrolase activity

Structure (SMILES) | activity change, negative = inhibition (at 19.5 µM (top of the series)) | other results
CCOc1ccc(C(CC(=O)O)NC(=O)C23CC4CC(CC(C4)C2)C3)cc1OC (centres undefined) | inactive | 
COc1cc(-c2n[nH]c(=S)n2/N=C/c2cccn2C)cc(OC)c1OC | inactive | 
Cc1ccc(NCCN(C)C)c2c(=O)c3cc(O)ccc3sc12 | inactive | 
Cc1cscc1-c1nc(NCC2CC2)nc2ccsc12 | inactive | 
O=C(C[C@H]1CC[C@@H]2[C@H](COC[C@@H](O)CN2C(=O)Nc2ccc(Cl)c(Cl)c2)O1)NCc1ccncc1 | inactive | 
Oc1ccc(/C=N/N2CCN(c3ccccn3)CC2)cc1 |  | AC50: > 39 µM (inactive)
CC(=O)NC(Cc1ccccc1)C(=O)Oc1ccc2ccccc2c1 (centres undefined) | inactive | 
CN1CCN(CC(=O)Nc2cc(N(C)C)nc3ccccc23)CC1 | inactive | 
O=C(COc1ncnc2ccccc12)NCCc1ccc(F)cc1 | inactive | 
COC(=O)C[C@H]1CC[C@@H]2[C@@H](COc3ccc(NC(=O)c4ccc(OC)cc4)cc3C(=O)N2C)O1 | inactive | 
CN(C(=O)COC(=O)CNC(=O)c1ccccc1Cl)c1ccccc1 | inactive | 
COCCCNC(=O)C1CCN(S(=O)(=O)c2c(C)noc2/C=C\c2ccc(OC)cc2)CC1 | inactive | 
CC(=O)N/C(=C\c1ccccc1)C(=O)Nc1ccc(O)cc1 |  | AC50: > 39 µM (inactive)
CCc1[nH]c(=O)c(C#N)c2c1CCCC2 | inactive | 
CC(=O)Nc1cc(-c2ccc(F)cc2)[nH]n1 | inactive | 
C[C@@H]1CN([C@H](C)CO)C(=O)c2cccc(N(C)C)c2O[C@@H]1CN(C)C(=O)Nc1ccc(C(F)(F)F)cc1 | inactive | 
Nc1ccccc1-c1nc2ccncc2[nH]1 | inactive | 
COc1cc(/C=C/C(=O)OCC(=O)c2ccc[nH]2)ccc1O | inactive | 
Cc1cccc(/C=C/c2onc(C)c2S(=O)(=O)N2CCC(C(=O)N3CCCCCC3)CC2)c1 | inactive | 
O=C(CN1C(=O)CCC1=O)NNc1ccc2ccccc2c1 | inactive | 
CC(C)CN1CCN(CC#Cc2ccccc2)CC1CCO (centres undefined) | inactive | 
CNC(=O)C[C@@H]1CC[C@H]2[C@H](COc3ccc(NS(=O)(=O)c4ccccc4C)cc3C(=O)N2C)O1 | inactive | 
Cc1ccc(CNC(=O)Nc2cccc(C)c2)cc1 | inactive | 

Structure (SMILES) | activity change, negative = inhibition (at 19.5 µM (top of the series)) | other results
CC(=O)C[C@H]1c2ccccc2S(=O)(=O)N1C1CCCCC1 | inactive | 
O=C(COc1ccc(/C=N/NC(=O)c2ccc(O)cc2)cc1)Nc1cccc([N+](=O)[O-])c1 | inactive | 
COc1cccc2cc(/C(C)=N/NC(=O)c3ccco3)oc12 | inactive | 
O=C(NNC(=O)c1cccc2ccccc12)c1cccc(F)c1 | inactive | 
Cc1nn(C)cc1-c1n[nH]c(=S)n1-c1ccc(F)cc1 | inactive | 
COc1ccc(/C=N/N=C2/NC(=O)C(CC(=O)NC(N)=O)S2)cc1 (centres undefined) | inactive | 
CO[C@@H]1CN(C)C(=O)c2cc(NC(=O)NC(C)C)ccc2OC[C@@H](C)N(S(C)(=O)=O)C[C@H]1C |  | activity change, negative = inhibition (at 3.5 µM (top of the series)): inactive
O=C(NCc1ccccc1)[C@@H]1CCCN1C(=O)[C@@H]1CCCN1C(=O)c1cccs1 | inactive | 
O=C(CSc1nc2ccccc2[nH]1)NC1CCCc2ccccc21 (centres undefined) | inactive | 
CN(c1ccccc1)S(=O)(=O)c1cccc(C(=O)NCCc2ccc(O)c(O)c2)c1 | inactive | 
COc1cc(-c2noc(C)c2C#CC2(O)CCCCC2)cc(OC)c1OC | inactive | 
COc1cc(/C=C/C(=O)OCC(=O)NCc2ccco2)ccc1O | inactive | 
O=C(OCn1nnc2ccccc2c1=O)c1cc2ccccc2o1 | inactive | 
CCn1c(C)nc2cc(C(=O)N/N=C/c3ccc(OC)c(O)c3)ccc21 |  | AC50: > 39 µM (inactive)
CCc1ccc2oc(-c3cc(N)ccc3Cl)nc2c1 | inactive | 
FC(F)(F)c1cc(CCN2CCNC[C@H]2Cc2cccc3ccccc23)cc(C(F)(F)F)c1 |  | AC50: > 39 µM (inactive)
Cc1ccc(S(=O)(=O)N2CC(CO)=CCC2c2ccccc2)cc1 (centres undefined) | inactive | 
CC1CCN(CCCn2c(=S)[nH]c3c(sc4ccccc43)c2=O)CC1 | inactive | 
CCNC(=O)C[C@H]1CC[C@@H]2[C@@H](COc3ccc(NC(=O)c4cccc(OC)c4)cc3C(=O)N2C)O1 |  | AC50: > 39 µM (inactive)
CCOC(=O)Cn1c(C(F)(F)F)nc2nc(Cl)c(Cl)nc21 | inactive | 
O=c1c(OC2OC(CO)C(O)C(O)C2O)c(-c2ccc(O)c(O)c2)oc2cc(O)cc(O)c12 (centres undefined) |  | activity change, negative = inhibition (at 10 µM (top of the series)): inactive
N/C(=N\N=C\c1ccc(O)cc1)c1nonc1N | inactive | 
COc1cc(/C=N/NC(=O)C2COc3ccccc3O2)ccc1O (centres undefined) | inactive | 

Structure (SMILES) | activity change, negative = inhibition (at 19.5 µM (top of the series)) | other results
O=C(Nc1ccccc1F)N1C[C@@H]2N[C@H](C1)C2c1ccc(-c2cccc(F)c2)cc1 (some centres undefined) | inactive | 
Cc1cc(N2CCCC2=O)cc(C)c1S(=O)(=O)Nc1c(C)nn(C)c1C | inactive | 
COc1cc2[nH]c(=S)n(Cc3cccs3)c(=O)c2cc1OC | inactive | 
CC(OC(=O)[C@@H](NC(=O)OCc1ccccc1)C(C)C)C(=O)Nc1ccc(N2CCOCC2)cc1 (some centres undefined) | inactive | 
Cc1cnc([N+](=O)[O-])n1CCOC(=O)NC(=O)c1ccc(F)cc1 | inactive | 
Cc1ccc2sc(NNC(=O)C3COc4ccccc4O3)nc2c1C (centres undefined) | inactive | 
CC(=O)c1cccc(OCC(=O)c2cc(C)n(-c3cc(C)on3)c2C)c1 | inactive | 
CCCNC(=O)C1CCN(S(=O)(=O)c2c(C)noc2/C=C\c2ccc(OC)cc2)CC1 | inactive | 
CS(=O)(=O)Nc1cccc(C2=NN(C(=O)c3ccccc3)C(c3cccs3)C2)c1 (centres undefined) | inactive | 
CCn1cc(C(=O)O)c(=O)c2cc(F)c(N3CCN(C(=S)NC(=O)c4ccccc4Br)CC3)cc21 | inactive | 
Cc1ccccc1S(=O)(=O)N1CCCc2nc(C)c(C)cc21 | inactive | 
COc1ccc(C2=NS(=O)(=O)N(C)C(C(=O)NC(C)c3ccccc3)=C2)cc1 (centres undefined) | inactive | 
C[C@H](CO)N1C[C@H](C)[C@@H](CN(C)C(=O)Nc2ccc(C(F)(F)F)cc2)Oc2c(NS(=O)(=O)c3ccccc3)cccc2C1=O |  | AC50: > 39 µM (inactive)
Cc1ccc(-n2c(SCC(=O)O)nc3c(sc(=S)n3-c3ccc(C)c(C)c3)c2=O)cc1 |  | AC50: > 39 µM (inactive)
O=C(NN=Cc1cc(Br)c(O)c(Br)c1)c1ccccc1NS(=O)(=O)c1cccs1 | inactive | 
Cc1ccc(C)c2c1cc(C)c1nnc(SCC(=O)NCc3ccc4c(c3)OCO4)n12 |  | AC50: > 39 µM (inactive)
Cn1c(=O)[nH]c(=O)c2c1[nH]c(=S)n2Cc1ccccc1 | inactive | 
O=C(c1ccccc1F)N1CCN(c2ccc([N+](=O)[O-])c3cccnc23)CC1 | inactive | 
Oc1ccc2ccc3[nH]cnc3c2c1 |  | AC50: > 39 µM (inactive)
COc1ccc(C(=O)Nc2ccc3c(c2)C(=O)N(C)[C@@H]2CC[C@H](CC(=O)NCC4CC4)O[C@H]2CO3)cc1 | inactive | 
CCn1c(SCC(=O)OC)nnc1-c1ccccc1 | inactive | 
COc1cc(OC)cc(C(=O)NNC(=O)CN2C(=O)NC(C)(c3ccc(C)cc3)C2=O)c1 (centres undefined) | inactive | 
CCOC(=O)c1[nH]nc(-c2cc(CC)c(O)cc2O)c1-c1cscn1 |  | AC50: > 39 µM (inactive)

Structure (SMILES) | activity change, negative = inhibition (at 19.5 µM (top of the series)) | other results
CCOC(=O)C(=O)NNc1ccc(Cl)cc1 | inactive | 
O=C1Nc2ccccc2C1c1ncc(C(F)(F)F)cc1Cl (centres undefined) | inactive | 
Cc1nc2ccccc2nc1OCC(=O)Nc1ccc(F)cc1 | inactive | 
c1ccc(SCc2nc3ccccc3s2)nc1 | inactive | 
COC(=O)[C@H]1C[C@@H]1[C@H](NP(=O)(c1ccccc1)c1ccccc1)c1ccccc1 | inactive | 
Fc1ccc(-c2nc3ccc(Br)cn3c2Cc2ccccc2)cc1 | inactive | 
Oc1ccc(Cc2ccc(Cl)cc2)c(O)c1 | inactive | 
COc1cc2nncc(SC)c2cc1OC | inactive | 
CN(C)c1ccc(Cl)c(NC(N)=S)c1 | inactive | 
O=C(NC(=S)Nc1ccc(O)cc1)c1ccccc1Cl | inactive | 
Cn1c(SCc2nnc(-c3ccccc3)o2)nc2ccccc21 | inactive | 
COc1ccc(-c2nc(N)ncc2-c2ccccc2OC)c(O)c1 | inactive | 
Cc1ccc(/C=C(\C#N)C(=O)Nc2ccccn2)o1 | inactive | 
COCC(=O)N1CC[C@@H]2[C@@H](CO)N(C)c3ccc(-c4ccccc4)cc3[C@@H]21 | inactive | 
CCn1c(=S)[nH]c2c(=O)n(C)c(=O)n(C)c21 |  | AC50: 10.8 µM
CN1C(=O)c2cc(NC(=O)c3cccc(F)c3)ccc2OC[C@H]2O[C@H](CC(=O)NCC3CCCCC3)CC[C@@H]21 | inactive | 
CCCCn1c(N)c(N(CC)C(=O)c2cccs2)c(=O)[nH]c1=O | inactive | 
CN(C(=O)Cn1c(=O)oc2cc(S(=O)(=O)N3CCCC3)ccc21)C1CCCCC1 | inactive | 
Cc1c(-n2c(O)c(C3=c4ccccc4=NC3=O)sc2=S)c(=O)n(-c2ccccc2)n1C | inactive | 
O=C(CSc1nc2cc(Cl)ccc2s1)c1ccco1 | inactive | 
